Measurements: paper PMC8280061, “A novel ligand of the translationally controlled tumor protein (TCTP) identified by virtual drug screening for cancer differentiation therapy” (Investigational New Drugs, 2021)

Tests used:
[1] = molecular target: T1, translationally controlled tumor protein (TCTP) (Homo sapiens, UniProt P13693); assay: microscale thermophoresis with NHS-labeled purified human TCTP (reference inhibitor, positive control); assay type: binding
T1 construct: gene TPT1
T1 sequence (P13693 1-172): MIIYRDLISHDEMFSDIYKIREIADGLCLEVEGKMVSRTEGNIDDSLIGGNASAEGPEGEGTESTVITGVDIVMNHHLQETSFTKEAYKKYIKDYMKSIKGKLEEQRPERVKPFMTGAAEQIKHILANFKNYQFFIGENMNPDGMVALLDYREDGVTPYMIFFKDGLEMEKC

[2] = molecular target: T1, translationally controlled tumor protein (TCTP); assay: microscale thermophoresis with NHS-labeled purified human TCTP; supported by co-immunoprecipitation of p53 from treated MOLT-4 cells; assay type: binding

Kd [1] [µM] | Kd [2] [µM] | SMILES
23.2 ± 9.45 |  | C[C@H]1[C@H](OC(=O)CCC(=O)O)O[C@@H]2O[C@@]3(C)CC[C@H]4[C@H](C)CC[C@@H]1[C@@]24OO3 [Artesunate]
 | 0.87 ± 0.38 | COc1cccc2c(C)nc(Nc3nc(-c4ccc(F)cc4)cc(=O)[nH]3)nc12 [ZINC10157406, 6-(4-fluorophenyl)-2-[(8-methoxy-4-methyl-2-quinazolinyl)amino]-4(3H)-pyrimidinone]
